According to patent US20260308222A1, “STABILIZED ANALOGUES OF CALCITONIN” (YISSUM RESEARCH DEVELOPMENT COMPANY OF THE HEBREW …, priority 2024, published 2026):

Assays:
[1] = tested on: vertebral fracture / acute back pain; details: cited from earlier work
[2] = Circular dichroism analysis, percent α-helicity; format: physicochemical; details: 10-30 μM peptide, 10 mM phosphate buffer pH 7, SDS, 2 h folding
Procedure: Following synthesis of the calcitonin analogues, the helicity of the calcitonin analogues was assessed by circular dichroism analysis. Far ultraviolet spectra (FIG. 6) were obtained from 195-260 nm on J-180 spectropolarimeter (Jasco) using 10-30 μM of sCT and all analogues in 10 mM phosphate buffer pH 7 and in the presence of sodium dodecyl sulphate (SDS), which were left for 2 h to allow folding. Each spectrum represents the average of 3 scans, and the mean residue ellipticity (θMRE) was calculated according to the following equation: […]
Percentage helicity of peptides as presented in Table 2 was calculated according to the following equation (Sommese, et al. 2010): […]
where n is the number of amino acids in the peptide.

[3] = Degradation in simulated gastric fluid (SGF); format: in vitro ADME; details: pH 1.3, 37 °C
Procedure: sCT and its analogues were evaluated for their degradation in simulated gastric fluid (SGF). The stock solution of each analogue was prepared by dissolving 2 mg of the peptide in 1 mL water. The stock solution of pepsin enzyme was prepared by dissolving 5 mg of pepsin in 5 mL of 10 mM HCl (1 mg/mL), and then was diluted to a 0.2 mg/mL with 10 mM HCl. 7 For degradation, 34 μL of pepsin (0.2 mg/mL) was added to 100 μL of peptide (2 mg/mL) at pH 1.3 and the reaction incubated at 37° C. To monitor the degradation, 10 μL of the reaction aliquots were taken and quenched with 10 μL of 10 mM NaOH every 30 min for several hours and analyzed by HPLC using XSelect C18 column ([…], 130 A, 4.6×150 mm) with a gradient of 5-70% of 0.1% TFA in MeCN over 20 min with monitoring at 220 nm.

[4] = tested on: human calcitonin receptor (hCTR); details: Potts Jr., 1992; cited from earlier work
[5] = biological target: T1, calcitonin receptor (CTR) (Homo sapiens, UniProt P30988); assay: Ca^2+ concentration assay, HEK293 CALCR-HiTSeeker cell line; format: cell-based; set-up: expressed in transfected cells; details: HEK293 CALCR-HiTSeeker cells
T1 sequence (P30988 25-474): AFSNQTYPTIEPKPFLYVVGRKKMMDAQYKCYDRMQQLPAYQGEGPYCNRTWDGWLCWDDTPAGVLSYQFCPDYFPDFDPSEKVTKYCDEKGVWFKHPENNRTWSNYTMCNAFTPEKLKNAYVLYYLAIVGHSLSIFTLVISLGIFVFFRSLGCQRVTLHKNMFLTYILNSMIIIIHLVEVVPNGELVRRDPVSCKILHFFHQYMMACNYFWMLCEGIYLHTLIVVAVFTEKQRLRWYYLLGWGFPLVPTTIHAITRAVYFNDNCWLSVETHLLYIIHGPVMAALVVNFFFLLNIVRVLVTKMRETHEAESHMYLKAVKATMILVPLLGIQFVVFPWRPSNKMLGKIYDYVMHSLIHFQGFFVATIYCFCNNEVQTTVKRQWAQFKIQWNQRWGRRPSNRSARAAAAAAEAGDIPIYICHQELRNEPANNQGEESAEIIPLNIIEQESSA

[6] = Degradation in simulated intestinal fluid (SIF); details: simulated intestinal fluid, pH 6.8, SIF t1/2, pancreatin 2 mg/mL stock, pH 6.8, 37 °C
[7] = biological target: T1, calcitonin receptor (CTR); assay: cAMP accumulation assay, U2OS Red cAMPNomad-CALCR cell line; format: cell-based; set-up: expressed in transfected cells; host or cells: U2OS Red cAMPNomad-CALCR; details: U2OS Red cAMPNomad-CALCR cells

% α helicity [2] [%]	SGF t1/2 ([3]; pepsin 0.2 mg/mL stock) [min]	half-life ([3]; simulated gastric fluid, pH 1.3, pepsin 0.2 mg/mL stock, read-out: SGF t1/2) [min]	Ca^2+ EC50 / efficacy [5]	EC50 ([5]; read-out: Ca^2+ EC50) [µM]	half-life [6] [min]	cAMP EC50 / potency [7]	EC50 ([7]; overnight incubation, read-out: cAMP EC50) [µM]	Compound	vertebral fracture recurrence and pain relief ([1]; Chesnut III, et al., 2000)	affinity for hCTR [4]	potency [4]	side effects of parenteral sCT ([1]; intra-muscular and subcutaneous injections)
								calcitonin	reduces the risk of vertebral fracture recurrence and provides pain relief for acute back pain caused by vertebral fractures			
98.6	35.6 ± 0.1	35	similar	0.087 ± 0.0175	7.1 ± 0.7	EC50 in the nanomolar range	0.0135 ± 0.0045	CC(C)C[C@H](NC(=O)[C@H](CCCCN)NC(=O)CNC(=O)[C@H](CC(C)C)NC(=O)[C@@H](NC(=O)[C@@H]1CSSC[C@H](N)C(=O)N[C@@H](CO)C(=O)N[C@@H](CC(N)=O)C(=O)N[C@@H](CC(C)C)C(=O)N[C@@H](CO)C(=O)N[C@@H]([C@@H](C)O)C(=O)N1)C(C)C)C(=O)N[C@@H](CO)C(=O)N[C@@H](CCC(N)=O)C(=O)N[C@@H](CCC(=O)O)C(=O)N[C@@H](CC(C)C)C(=O)N[C@@H](Cc1c[nH]cn1)C(=O)N[C@@H](CCCCN)C(=O)N[C@@H](CC(C)C)C(=O)N[C@@H](CCC(N)=O)C(=O)N[C@H](C(=O)N[C@@H](Cc1ccc(O)cc1)C(=O)N1CCC[C@H]1C(=O)N[C@@H](CCCNC(=N)N)C(=O)N[C@H](C(=O)N[C@@H](CC(N)=O)C(=O)N[C@H](C(=O)NCC(=O)N[C@@H](CO)C(=O)NCC(=O)N[C@H](C(=O)N1CCC[C@H]1C(N)=O)[C@@H](C)O)[C@@H](C)O)[C@@H](C)O)[C@@H](C)O [sCT, reference compound]		highest affinity for the human calcitonin receptor (hCTR)	highest potency	gastrointestinal (GI) disturbances and injection site reactions
